Test results as given in paper PMC10779311, “Antileishmanial Activity, Toxicity and Mechanism of Action of Complexes of Sodium Usnate with Lanthanide Ions: Eu(III), Sm(III), Gd(III), Nd(III), La(III) and Tb(III)” (International Journal of Molecular Sciences, 2023).
Where two headings read alike, the source gives them in different places.

Legend:
[1] = test system: L. (L.) amazonensis intracellular amastigotes; assay: In vitro antileishmanial activity on intracellular amastigotes in peritoneal macrophages; format: cell-based, Leishmania (Leishmania) amazonensis; conditions: for IC50: BALB/c peritoneal macrophages, 24 h, Giemsa count, read-out: L. amazonensis Intracellular Amastigotes (Ama.) IC50
Protocol: Peritoneal macrophages were obtained from BALB/c mice in RPMI 1640 culture medium (Sigma-Aldrich® São Paulo, Brazil). After exclusion of inviable cells with trypan blue staining (Sigma-Aldrich® São Paulo, Brazil), cells were transferred to 24-well plates with 13 mm round glass coverslips (10^6 cells/well) and kept at 37 °C/5% CO2. After adhesion for one hour, cells were infected with promastigote forms of L. (L.) amazonensis in the stationary phase (4 × 10^6 cells/well). After 4 h of incubation, samples (complexes 1–7) were added in six replicates (6.25–50.0 µg·mL^−1). […] Coverslips were removed after 24 h, subjected to a dehydration battery with increasing concentrations of acetone: xylol and stained with Giemsa (Sigma-Aldrich®, São Paulo, Brazil) diluted 1:10 in distilled water. After mounting on slides, 200 cells per coverslip were analyzed by light microscopy and the average number of amastigotes/cells was calculated. IC50 was determined using a non-linear dose–response regression curve as described above. The concentrations of complexes were compared by Two-way ANOVA followed by the Tukey test.

[2] = test system: L. (L.) amazonensis promastigote forms; assay: Flow cytometry for mitochondrial membrane potential (TMRE); format: cell-based, Leishmania (Leishmania) amazonensis; conditions: for reduction in TMRE labeling (ΔΨm): treatment at IC50, relative to nontreated parasites
[3] = test system: L. (L.) amazonensis promastigote forms; assay: In vitro antileishmanial activity on promastigote forms (MTT); format: cell-based, Leishmania (Leishmania) amazonensis; conditions: 72 h
[4] = test system: NIH/3T3 fibroblasts; assay: Cytotoxicity in mammalian cells (sulforhodamine B); format: cell-based; conditions: 48 h, read-out: Fibroblasts NIH/3T3 (Fib.) IC50
Protocol: The cytotoxic effect of compounds 1–7 was evaluated on NIH/3T3 fibroblasts obtained from the Rio de Janeiro Cell Bank (Duque de Caxias, Brazil). Fibroblasts were seeded at […] in 96-well plates. After 24 h of fixation, cells were incubated for 48 h with 1–7 at 2.5–250 µg·mL^−1, in three replicates. Cell growth was evaluated using the sulforhodamine B colorimetric method, and the optical with absorbances read on the PT-READER microplate instrument (Spectramax 190, Molecular Devices, Sunnyvale, CA, USA) at 540 nm. […] The growth inhibition percentage-GI (%) of each test sample was calculated in Microsoft Office Excel 2007 software. IC50 was determined graphically in the Microcal Origin Version 6.00 program. The selectivity index (SI) was calculated as the ratio between the cytotoxicity on cells (IC50) and the activity on the parasite forms (IC50).

[5] = test system: L. (L.) amazonensis promastigote forms; assay: Flow cytometry for apoptosis and membrane permeability (PE Annexin V / 7-AAD); format: cell-based, Leishmania (Leishmania) amazonensis; conditions: for 7-AAD-stained parasites / An. (PE Annexin V-stained parasites) / An./7-AAD (double stained parasites) / Unst. (unstained parasites): treatment at IC50
Source text: PE Annexin V staining precedes the loss of membrane integrity observed in the final stages of cell death, resulting from either apoptotic or necrotic processes. PE Annexin V is used in conjunction with the vital dye 7-Amino-Actinomycin (7-AAD) to identify early apoptotic cells (7-AAD negative, PE Annexin V positive). Viable cells with intact membranes exclude 7-AAD, but the membranes of dead and damaged cells are permeable to 7-AAD. Cells that are in late apoptosis or already dead are both PE Annexin V and 7-AAD positive. […] Heat-killed parasites (60 °C bath/10 min) were used as positive control, and untreated parasites were used as negative control. Promastigotes were stained with 5 µL of PE Annexin V and 5 µL 7-AAD (PE Annexin V Apoptosis Detection Kit I, BD Biosciences^TM, Franklin Lakes, NJ, USA) and immediately subjected to flow cytometric analysis (BD FACSCanto^TM II). Then, 10,000 events were captured in the region previously determined to correspond to the parasites. Fluorescence was quantified and histograms were generated.

[6] = 48 h after treatment at the calculated IC50
[7] = 72 h after treatment at the calculated IC50
[8] = MTT, read-out: L. amazonensis Promastigotes (Pro.) IC50
[9] = Leishmania amazonensis, Peritoneal macrophage, in Mus musculus

| Compound | IC50 [1] [µM] | TMRE-labeled promastigotes [2, 6] [%] | reduction in TMRE labeling (ΔΨm) ([2]; 72 h) [%] | TMRE-labeled promastigotes [2, 7] [%] | IC50 [3, 8] [µM] | IC50 [4] [µM] | 7-AAD-stained parasites ([5]; 24 h) [%] | An. (PE Annexin V-stained parasites) ([5]; 24 h) [%] | An./7-AAD (double stained parasites) ([5]; 24 h) [%] | Unst. (unstained parasites) ([5]; 24 h) [%] | 7-AAD-stained parasites ([5]; 48 h) [%] | An. (PE Annexin V-stained parasites) ([5]; 48 h) [%] | An./7-AAD (double stained parasites) ([5]; 48 h) [%] | Unst. (unstained parasites) ([5]; 48 h) [%] | 7-AAD-stained parasites ([5]; 72 h) [%] | An. (PE Annexin V-stained parasites) ([5]; 72 h) [%] | An./7-AAD (double stained parasites) ([5]; 72 h) [%] | Unst. (unstained parasites) ([5]; 72 h) [%] | other results |
| --- | --- | --- | --- | --- | --- | --- | --- | --- | --- | --- | --- | --- | --- | --- | --- | --- | --- | --- | --- |
| CC(=O)C1=C([O-])C=C2Oc3c(C(C)=O)c(O)c(C)c(O)c3C2(C)C1=O.CC(=O)C1=C([O-])C=C2Oc3c(C(C)=O)c(O)c(C)c(O)c3C2(C)C1=O.CC(=O)C1=C([O-])C=C2Oc3c(C(C)=O)c(O)c(C)c(O)c3C2(C)C1=O.O.O.O.[Gd+3] (stereo not drawn) [GdL3·3H2O 3] | 5.52 | 46.8 | 24.5 | 59.2 | 1.5 | 26.5 | 0.4 | 0.7 | 0.6 | 98.4 | 12.7 | 2.4 | 6 | 78.8 | 3.2 | 2.6 | 7.4 | 86.8 | reduction in TMRE labeling (ΔΨm) ([2]; 48 h): 36.2%; reduction in cell viability ([5]; 48 h after treatment at IC50): 17.4% |
| N=C(N)c1ccc(OCCCCCOc2ccc(C(=N)N)cc2)cc1 [Pentamidine, reference compound] |  |  |  |  | 1.49 |  |  |  |  |  |  |  |  |  |  |  |  |  | IC50 [1, 9]: 0.92 µM; IC50 ([3]; Leishmania amazonensis, read-out: L. amazonensis Promastigotes (Pro.) IC50, 72 h, MTT): 1.5 µM |
| CC(=O)C1=C([O-])C=C2Oc3c(C(C)=O)c(O)c(C)c(O)c3C2(C)C1=O.CC(=O)C1=C([O-])C=C2Oc3c(C(C)=O)c(O)c(C)c(O)c3C2(C)C1=O.CC(=O)C1=C([O-])C=C2Oc3c(C(C)=O)c(O)c(C)c(O)c3C2(C)C1=O.O.O.O.O.[Sm+3] (stereo not drawn) [SmL3·4H2O 2] | 5.23 | 43.5 | 41.7 | 45.7 | 1.26 | 20 | 10.2 | 3.1 | 5.5 | 81.2 | 2.8 | 1.7 | 3.4 | 92.1 | 4.0 | 2.5 | 7.6 | 85.8 | reduction in TMRE labeling (ΔΨm) ([2]; 48 h): 40.7%; reduction in viability ([5]; 24 h after treatment at IC50): 17.2% |
| C[C@@H]1[C@H](O)[C@@H](C)/C=C/C=C/C=C/C=C/C=C/C=C/C=C/[C@H](O[C@@H]2O[C@H](C)[C@@H](O)[C@H](N)[C@@H]2O)C[C@@H]2O[C@](O)(C[C@@H](O)C[C@@H](O)[C@H](O)CC[C@@H](O)C[C@@H](O)CC(=O)O[C@H]1C)C[C@H](O)[C@H]2C(=O)O [Amphotericin B, reference compound] |  |  |  |  |  |  |  |  |  |  |  |  |  |  |  |  |  |  | IC50 [1, 9]: 0.198 µM; IC50 ([3]; Leishmania amazonensis, MTT, read-out: L. amazonensis Promastigotes (Pro.) IC50): 0.145 µM |
| CC(=O)C1=C([O-])C=C2Oc3c(C(C)=O)c(O)c(C)c(O)c3C2(C)C1=O.CC(=O)C1=C([O-])C=C2Oc3c(C(C)=O)c(O)c(C)c(O)c3C2(C)C1=O.CC(=O)C1=C([O-])C=C2Oc3c(C(C)=O)c(O)c(C)c(O)c3C2(C)C1=O.O.O.[Tb+3] (stereo not drawn) [TbL3·2H2O 6] | 7.52 | 70.2 |  | 69.5 | 0.0023 | 17.5 | 0.2 | 0.8 | 0.6 | 98.3 | 1.2 | 1.3 | 3.0 | 94.5 | 6.4 | 2.6 | 10.1 | 80.9 |  |
| CC(=O)C1=C([O-])C=C2Oc3c(C(C)=O)c(O)c(C)c(O)c3C2(C)C1=O.CC(=O)C1=C([O-])C=C2Oc3c(C(C)=O)c(O)c(C)c(O)c3C2(C)C1=O.CC(=O)C1=C([O-])C=C2Oc3c(C(C)=O)c(O)c(C)c(O)c3C2(C)C1=O.O.O.O.[Nd+3] (stereo not drawn) [NdL3·3H2O 5] | 2.83 | 70.1 | 11.35 | 60.9 | 0.91 | 19.7 | 0.3 | 0.7 | 0.5 | 98.4 | 1.6 | 1.4 | 3.3 | 93.8 | 7.7 | 2.5 | 10.0 | 79.8 |  |
| CC(=O)C1=C([O-])C=C2Oc3c(C(C)=O)c(O)c(C)c(O)c3C2(C)C1=O.CC(=O)C1=C([O-])C=C2Oc3c(C(C)=O)c(O)c(C)c(O)c3C2(C)C1=O.CC(=O)C1=C([O-])C=C2Oc3c(C(C)=O)c(O)c(C)c(O)c3C2(C)C1=O.O.O.O.[La+3] (stereo not drawn) [LaL3·3H2O 7] | 4.58 | 76.0 | 22.3 | 82.0 | 1.49 | 10.9 | 0.4 | 0.7 | 0.5 | 98.3 | 1.6 | 1.8 | 3.3 | 93.3 | 5.6 | 2.4 | 10.0 | 82.0 | Intracellular amastigote activity, arbitrary scale ([1]; class by IC50): active |
